Measurements reported in ChEMBL document CHEMBL1201862, “PubChem BioAssay data set” (2004).
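1) Cells in 96-well plates. 2) Compound, 48 h, 5 concentrations. 3) Linear interpolation between surrounding doses. 4) Unreached endpoint = highest concentration. The concentration for 50% growth inhibition is given as GI50.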 Active and inactive are the calls of the source. Cut-off read from the data, not from the text of the source: active = GI50 up to about 1.1 µM and inactive = higher.

Legend:
Test in all cases: NCI-60 cell line screen, 48 h
[1] = test system: KM-20L2
[2] = test system: M19-MEL
[3] = test system: LXFL 529
[4] = test system: HOP-18
[5] = test system: SNB-78
[6] = test system: DMS-273
[7] = test system: DMS-114
[8] = test system: RXF 631
[9] = test system: XF498

| Compound | GI50 [1] | GI50 [2] | GI50 [3] | GI50 [4] | GI50 [5] | GI50 [6] | GI50 [7] | GI50 [8] | GI50 [9] |
| --- | --- | --- | --- | --- | --- | --- | --- | --- | --- |
| O=C(/C=C/c1cc(Cl)cc(Cl)c1O)c1cccc(O)c1 | 48.3 µM (inactive) | 26.5 µM (inactive) | 57.1 µM (inactive) | 31 µM (inactive) | 91.8 µM (inactive) | 54.2 µM (inactive) | 35.9 µM (inactive) | – | – |
| c1ccc(SC23C4C5C6C4C2C6C53)nc1 (centres undefined) | > 100 µM (inactive) | > 100 µM (inactive) | > 100 µM (inactive) | 4.86 µM (inactive) | > 100 µM (inactive) | > 100 µM (inactive) | > 100 µM (inactive) | > 100 µM (inactive) | – |
| O=C1Nc2ccccc2C12CCNC2Cc1ccccc1 (centres undefined) | > 100 µM (inactive) | > 100 µM (inactive) | > 100 µM (inactive) | 78.3 µM (inactive) | – | > 100 µM (inactive) | > 100 µM (inactive) | – | > 100 µM (inactive) |
| COc1ccc(-c2nc3c(nc2-c2ccc(OC)cc2)C(N)=NS(=O)(=O)N3)cc1 | – | > 100 µM (inactive) | – | – | – | > 100 µM (inactive) | > 100 µM (inactive) | > 100 µM (inactive) | – |
| CC1(C)CC(=O)C2=C(C1)S/C(=C1/SC3=C(S1)C(=O)CC(C)(C)C3)S2 | > 251 µM (inactive) | > 251 µM (inactive) | > 251 µM (inactive) | > 251 µM (inactive) | > 251 µM (inactive) | > 251 µM (inactive) | > 251 µM (inactive) | – | > 251 µM (inactive) |
| CCC/C(=N\NC(=S)N1CCN(c2ccccn2)CC1)c1ccccn1 | < 0.001 µM (active) | 0.0366 µM (active) | < 0.001 µM (active) | 0.00887 µM (active) | 0.583 µM (active) | 0.00117 µM (active) | < 0.001 µM (active) | 0.133 µM (active) | < 0.001 µM (active) |
| COc1ccc(/C(=N\NC(=N)N)C(c2ccc(OC)cc2)C2OC(=O)c3ccccc32)cc1 (centres undefined) | > 100 µM (inactive) | > 100 µM (inactive) | > 100 µM (inactive) | – | > 100 µM (inactive) | > 100 µM (inactive) | > 100 µM (inactive) | > 100 µM (inactive) | > 100 µM (inactive) |
| COc1cc(C=O)c(-c2cc3c(cc2C2(C)OCCS2)OCO3)c(OC)c1OC (centres undefined) | 4.08 µM (inactive) | – | 17.6 µM (inactive) | – | 8.65 µM (inactive) | 10.3 µM (inactive) | 17.5 µM (inactive) | – | 9.66 µM (inactive) |
| COC(=O)/C=C/c1cc(OC)c(OC)c(OC)c1 | > 100 µM (inactive) | 93.8 µM (inactive) | > 100 µM (inactive) | > 100 µM (inactive) | – | > 100 µM (inactive) | > 100 µM (inactive) | 82.4 µM (inactive) | > 100 µM (inactive) |
| O=C(COc1ccc2c(=O)cc(-c3ccc(Cl)cc3)oc2c1)N1CCN(c2ccccc2)CC1 | > 100 µM (inactive) | > 100 µM (inactive) | 11.9 µM (inactive) | – | 5.11 µM (inactive) | – | – | 6.58 µM (inactive) | > 100 µM (inactive) |
| Clc1cccc(-c2nnc(-c3nn(-c4ccccc4)c4nc5ccccc5nc34)o2)c1 | > 100 µM (inactive) | > 100 µM (inactive) | 78.9 µM (inactive) | > 100 µM (inactive) | > 100 µM (inactive) | > 100 µM (inactive) | > 100 µM (inactive) | – | 43.8 µM (inactive) |
| Nc1nc2ncn(CC(O)CO)c2c(=S)[nH]1 (centres undefined) | > 100 µM (inactive) | > 100 µM (inactive) | > 100 µM (inactive) | > 100 µM (inactive) | > 100 µM (inactive) | > 100 µM (inactive) | > 100 µM (inactive) | > 100 µM (inactive) | 23.4 µM (inactive) |
| C1=CC(N(c2ccccc2)C2C=CCCC2)CCC1 (centres undefined) | 72.6 µM (inactive) | > 100 µM (inactive) | > 100 µM (inactive) | > 100 µM (inactive) | – | > 100 µM (inactive) | 67.3 µM (inactive) | – | – |
| Cc1ccc(C2(O)CC(c3ccc([N+](=O)[O-])o3)=NN2C(=O)COc2ccc(Cl)cc2)cc1 (centres undefined) | 7.18 µM (inactive) | 3.67 µM (inactive) | 2.79 µM (inactive) | 20.9 µM (inactive) | 12.9 µM (inactive) | 6.32 µM (inactive) | 9.86 µM (inactive) | – | 11.4 µM (inactive) |
| O=C(/C=C/c1ccc(OCCCCCCCCCCOc2ccc(/C=C/C(=O)c3ccc(Cl)cc3)cc2)cc1)c1ccc(Cl)cc1 | > 100 µM (inactive) | – | – | > 100 µM (inactive) | > 100 µM (inactive) | > 100 µM (inactive) | > 100 µM (inactive) | > 100 µM (inactive) | – |
| CC1(C)C(=O)N(c2ccccc2)C(=O)N1c1nc2ccccc2[nH]1 | > 100 µM (inactive) | > 100 µM (inactive) | 85.3 µM (inactive) | > 100 µM (inactive) | > 100 µM (inactive) | > 100 µM (inactive) | 38.7 µM (inactive) | > 100 µM (inactive) | 92.7 µM (inactive) |
| O=C1c2ccccc2C(=O)c2nc(-c3ccccc3)c(-c3ccccc3)nc21 | 50.5 µM (inactive) | 0.427 µM (active) | > 100 µM (inactive) | 26.7 µM (inactive) | > 100 µM (inactive) | 33.7 µM (inactive) | 1.21 µM (inactive) | 33.4 µM (inactive) | 14.4 µM (inactive) |
| O=C1N[C@@H](O)[C@@H]2ON=C(c3ccccc3)[C@H]12 | > 100 µM (inactive) | > 100 µM (inactive) | > 100 µM (inactive) | > 100 µM (inactive) | – | > 100 µM (inactive) | > 100 µM (inactive) | > 100 µM (inactive) | > 100 µM (inactive) |
| CN(C)C(=S)Nc1nnc(Nc2ccccc2)s1 | > 100 µM (inactive) | > 100 µM (inactive) | > 100 µM (inactive) | > 100 µM (inactive) | > 100 µM (inactive) | > 100 µM (inactive) | – | > 100 µM (inactive) | – |
| O=C(CC(=O)c1cccc2ccccc12)C(=O)NC1C2CC3CC(C2)CC1C3 (centres undefined) | > 100 µM (inactive) | > 100 µM (inactive) | > 100 µM (inactive) | 60.1 µM (inactive) | > 100 µM (inactive) | > 100 µM (inactive) | > 100 µM (inactive) | > 100 µM (inactive) | > 100 µM (inactive) |
| O=C(c1ccc(Cl)cc1)C1OC12C(=O)Nc1ccccc12 (centres undefined) | 19.4 µM (inactive) | 10.4 µM (inactive) | 3.08 µM (inactive) | 13.9 µM (inactive) | 16 µM (inactive) | 12.7 µM (inactive) | 12.4 µM (inactive) | 17 µM (inactive) | 12.5 µM (inactive) |
| COc1ccc(C2S/C(=C\c3ccc([N+](=O)[O-])cc3)C(=O)N2NC(=O)Cc2ccccc2)cc1 (centres undefined) | – | > 100 µM (inactive) | > 100 µM (inactive) | > 100 µM (inactive) | – | > 100 µM (inactive) | 45.8 µM (inactive) | – | – |
| CCCCN(Cc1ccccc1)/C(=N/C#N)N(Cc1ccccc1)Cc1ccccc1 | 6.82 µM (inactive) | 24.4 µM (inactive) | 7.94 µM (inactive) | – | 24.2 µM (inactive) | 16.6 µM (inactive) | – | – | – |
